According to ChEMBL document CHEMBL1158330, “Two new puriniums and three new pyrimidines from Heterostemma brownii” (J Nat Prod, 1997):

Columns and labels:
Huh-7 [1] = test: Cytotoxicity against human HuH7 cells after 72 hrs by MTT assay; assay type: functional, cell-based; settings: Huh-7, 72 h
[2] = Cytotoxicity against human HCE6 cells at 100 uM after 72 hrs by MTT assay relative to control; assay type: functional; settings: HCE6, 72 h
HL-60 [3] = test: Cytotoxicity against human HL60 cells at 100 nM after 72 hrs by MTT assay relative to control; assay type: functional; settings: HL-60, 72 h
HL-60 [4] = test: Cytotoxicity against human HL60 cells after 72 hrs by MTT assay; assay type: functional, cell-based; settings: HL-60, 72 h
[5] = Cytotoxicity against human HCE6 cells at 100 nM after 72 hrs by MTT assay; assay type: functional; settings: HCE6, 72 h
MOLT-4 [6] = test: Cytotoxicity against human MOLT4 cells at 10 uM after 72 hrs by MTT assay relative to control; assay type: functional; settings: MOLT-4, 72 h
HL-60 [7] = test: Cytotoxicity against human HL60 cells at 1000 uM after 72 hrs by MTT assay relative to control; assay type: functional; settings: HL-60, 72 h
K562 [8] = test: Cytotoxicity against human K562 cells after 72 hrs by MTT assay; assay type: functional, cell-based; settings: K562, 72 h
MOLT-4 [9] = test: Cytotoxicity against human MOLT4 cells at 1 uM after 72 hrs by MTT assay relative to control; assay type: functional; settings: MOLT-4, 72 h
Huh-7 [10] = test: Cytotoxicity against human HuH7 cells at 10 uM after 72 hrs by MTT assay relative to control; assay type: functional; settings: Huh-7, 72 h
Huh-7 [11] = test: Cytotoxicity against human HuH7 cells at 1000 uM after 72 hrs by MTT assay relative to control; assay type: functional; settings: Huh-7, 72 h
Huh-7 [12] = test: Cytotoxicity against human HuH7 cells at 100 uM after 72 hrs by MTT assay relative to control; assay type: functional; settings: Huh-7, 72 h
HL-60 [13] = test: Cytotoxicity against human HL60 cells at 1 uM after 72 hrs by MTT assay relative to control; assay type: functional; settings: HL-60, 72 h
K562 [14] = test: Cytotoxicity against human K562 cells at 1 uM after 72 hrs by MTT assay relative to control; assay type: functional; settings: K562, 72 h
MOLT-4 [15] = test: Cytotoxicity against human MOLT4 cells at 1000 uM after 72 hrs by MTT assay relative to control; assay type: functional; settings: MOLT-4, 72 h
MOLT-4 [16] = test: Cytotoxicity against human MOLT4 cells at 100 nM after 72 hrs by MTT assay relative to control; assay type: functional; settings: MOLT-4, 72 h
HL-60 [17] = test: Cytotoxicity against human HL60 cells at 100 uM after 72 hrs by MTT assay relative to control; assay type: functional; settings: HL-60, 72 h
K562 [18] = test: Cytotoxicity against human K562 cells at 100 uM after 72 hrs by MTT assay relative to control; assay type: functional; settings: K562, 72 h
HL-60 [19] = test: Cytotoxicity against human HL60 cells at 10 uM after 72 hrs by MTT assay relative to control; assay type: functional; settings: HL-60, 72 h
K562 [20] = test: Cytotoxicity against human K562 cells at 100 nM after 72 hrs by MTT assay relative to control; assay type: functional; settings: K562, 72 h
[21] = Cytotoxicity against human HCE6 cells at 1 uM after 72 hrs by MTT assay relative to control; assay type: functional; settings: HCE6, 72 h
MOLT-4 [22] = test: Cytotoxicity against human MOLT4 cells after 72 hrs by MTT assay; assay type: functional, cell-based; settings: MOLT-4, 72 h
Huh-7 [23] = test: Cytotoxicity against human HuH7 cells at 100 nM after 72 hrs by MTT assay relative to control; assay type: functional; settings: Huh-7, 72 h
[24] = Cytotoxicity against human HCE6 cells at 10 uM after 72 hrs by MTT assay relative to control; assay type: functional; settings: HCE6, 72 h
K562 [25] = test: Cytotoxicity against human K562 cells at 1000 uM after 72 hrs by MTT assay relative to control; assay type: functional; settings: K562, 72 h
[26] = Cytotoxicity against human HCE6 cells at 1000 uM after 72 hrs by MTT assay relative to control; assay type: functional; settings: HCE6, 72 h
Huh-7 [27] = test: Cytotoxicity against human HuH7 cells at 1 uM after 72 hrs by MTT assay relative to control; assay type: functional; settings: Huh-7, 72 h
[28] = Cytotoxicity against human HCE6 cells after 72 hrs by MTT assay; assay type: functional, cell-based; settings: HCE6, 72 h
MOLT-4 [29] = test: Cytotoxicity against human MOLT4 cells at 100 uM after 72 hrs by MTT assay relative to control; assay type: functional; settings: MOLT-4, 72 h
K562 [30] = test: Cytotoxicity against human K562 cells at 10 uM after 72 hrs by MTT assay relative to control; assay type: functional; settings: K562, 72 h

Compound	IC50 (Huh-7 [1])	viability at 100 µM [2]	viability at 0.1 µM (HL-60 [3])	IC50 (HL-60 [4])	viability at 0.1 µM [5]	viability at 10 µM (MOLT-4 [6])	viability at 1000 µM (HL-60 [7])	IC50 (K562 [8])	viability at 1 µM (MOLT-4 [9])	viability at 10 µM (Huh-7 [10])	viability at 1000 µM (Huh-7 [11])	viability at 100 µM (Huh-7 [12])	viability at 1 µM (HL-60 [13])	viability at 1 µM (K562 [14])	viability at 1000 µM (MOLT-4 [15])	viability at 0.1 µM (MOLT-4 [16])	viability at 100 µM (HL-60 [17])	viability at 100 µM (K562 [18])	viability at 10 µM (HL-60 [19])	viability at 0.1 µM (K562 [20])	other results
CNc1nc(OC)c2c(n1)n(C)c[n+]2C [HETEROMINE B]	464 µM	22.1%	114%	27 µM	82.2%	86%	14.9%	62.9 µM	91%	94.3%	28.8%	92.5%	99.1%	95.5%	17.4%	107%	20.3%	40.4%	72.6%	96.8%	viability at 1 µM [21]: 82.2%; IC50 (MOLT-4 [22]): 52.3 µM; viability at 0.1 µM (Huh-7 [23]): 104%; viability at 10 µM [24]: 85%; viability at 1000 µM (K562 [25]): 27.6%; viability at 1000 µM [26]: 10.6%; viability at 1 µM (Huh-7 [27]): 103%; IC50 [28]: 36 µM; viability at 100 µM (MOLT-4 [29]): 35.9%; viability at 10 µM (K562 [30]): 88.2%
COc1nc(N(C)C)nc2c1[n+](C)cn2C [HETEROMINE A]	71.8 µM	8.2%	94.5%	7.43 µM	92.4%	54.8%	5.7%	9.88 µM	90.7%	91.1%	11.1%	43.1%	99.3%	107%	5.6%	94.7%	8.2%	33.5%	42.7%	94.3%	viability at 1 µM [21]: 87.4%; IC50 (MOLT-4 [22]): 14.4 µM; viability at 0.1 µM (Huh-7 [23]): 97.3%; viability at 10 µM [24]: 26.2%; viability at 1000 µM (K562 [25]): 5.9%; viability at 1000 µM [26]: 1.7%; viability at 1 µM (Huh-7 [27]): 102%; IC50 [28]: 4.08 µM; viability at 100 µM (MOLT-4 [29]): 24.8%; viability at 10 µM (K562 [30]): 49.7%
